Experimental data published in patent US7619086B2 (Merck & Co., Inc., priority 2004, dated 2009).

Legend:
[1] = target: T1, HIV integrase (recombinant integrase) (Human immunodeficiency virus type 1 group M subtype B, UniProt P04585); test: HIV integrase assay: strand transfer catalyzed by recombinant integrase; format: biochemical; settings: per WO 02/30930, read-out: IC50, inhibition of strand transfer activity of integrase
T1 construct: Assays for the strand transfer activity of integrase were conducted in accordance with WO 02/30930 for recombinant integrase
Method: Assays for the strand transfer activity of integrase were conducted in accordance with WO 02/30930 for recombinant integrase.
Further description on conducting the assay using preassembled complexes is found in Wolfe, A. L. et al., J. Virol. 1996, 70: 1424-1432, Hazuda et al., J. Virol. 1997, 71: 7005-7011; Hazuda et al., Drug Design and Discovery 1997, 15: 17-24; and Hazuda et al., Science 2000, 287: 646-650.

HIV = test: Assay for inhibition of HIV replication (acute HIV infection of T-lymphoid cells); format: cell-based; settings: Human immunodeficiency virus 1
Method: Assays for the inhibition of acute HIV infection of T-lymphoid cells were conducted in accordance with Vacca, J. P. et al., Proc. Natl. Acad. Sci. USA 1994, 91: 4096.

SMILES | IC50 [1] [µM] | IC95 (HIV) [µM]
O=C1C2=C(O)C(=O)N(C3CC3)CC2CCN1Cc1ccc(F)c(Cl)c1 (racemic) [Example 18, 2-(3-Chloro-4-fluorobenzyl)-8-hydroxy-6-cyclopropyl-2,3,4,4a,5,6-hexahydro-2,6-naphthyridine-1,7-dione] | ≤ 1 | ≤ 10
CC[C@@H]1[C@@H]2CCN(Cc3ccc(F)cc3)C(=O)C2=C(O)C(=O)N1C (relative stereo) [Example 6, (Cis-4a,5)-5-Ethyl-2-(4-fluorobenzyl)-8-hydroxy-6-methyl-2,3,4,4a,5,6-hexahydro-2,6-naphthyridine-1,7-dione] | ≤ 1 | ≤ 10
CC[C@@H]1[C@H]2CCN(Cc3ccc(F)cc3)C(=O)C2=C(O)C(=O)N1C (relative stereo) [Example 7, (Trans-4a,5)-5-Ethyl-2-(4-fluorobenzyl)-8-hydroxy-6-methyl-2,3,4,4a,5,6-hexahydro-2,6-naphthyridine-1,7-dione] | ≤ 1 | ≤ 10
CN1C(=O)C(O)=C2C(=O)N(Cc3ccc(F)cc3)CCC2C1C(=O)OC(C)(C)C (single isomer, unassigned) [Example 4, 5-(tert-Butyloxycarbonyl)-2-(4-fluorobenzyl)-8-hydroxy-6-methyl-2,3,4,4a,5,6-hexahydro-2,6-naphthyridine-1,7-dione] | ≤ 1 | ≤ 10
CN1C(=O)C(O)=C2C(=O)N(Cc3ccc(F)cc3)CCC2C1c1ncccn1 (single isomer, unassigned) [first eluting enantiomer of Example 17, 5-(Pyrimidin-2-yl)-2-(4-fluorobenzyl)-8-hydroxy-6-methyl-2,3,4,4a,5,6-hexahydro-2,6-naphthyridine-1,7-dione] | ≤ 1 | ≤ 10
CN1CC2CCN(Cc3ccc(F)cc3)C(=O)C2=C(O)C1=O (stereo not drawn) [Example 1, 2-(4-Fluorobenzyl)-8-hydroxy-6-methyl-2,3,4,4a,5,6-hexahydro-2,6-naphthyridine-1,7-dione] | ≤ 1 | ≤ 10
CN1C(=O)C(O)=C2C(=O)N(Cc3ccc(F)cc3)CCC2C1(C)C (stereo not drawn) [Example 2, 2-(4-Fluorobenzyl)-8-hydroxy-5,5,6-trimethyl-2,3,4,4a,5,6-hexahydro-2,6-naphthyridine-1,7-dione] | ≤ 1 | ≤ 10
CN1CC2(c3ccccc3)CCN(Cc3ccc(F)cc3)C(=O)C2=C(O)C1=O (stereo not drawn) [Example 3, 2-(4-Fluorobenzyl)-8-hydroxy-6-methyl-4-a-phenyl-2,3,4,4a,5,6-hexahydro-2,6-naphthyridine-1,7-dione] | ≤ 1 | ≤ 10
CCC1NC(=O)C(O)=C2C(=O)N(Cc3ccc(F)cc3)CCC21 (stereo not drawn) [Example 5] | ≤ 1 | ≤ 10
CC1(C)C2CCN(Cc3ccc(F)cc3)C(=O)C2=C(O)C(=O)N1CC1CC1 (stereo not drawn) [Example 8, 6-(Cyclopropylmethyl)-2-(4-fluorobenzyl)-8-hydroxy-5,5-dimethyl-2,3,4,4a,5,6-hexahydro-2,6-naphthyridine-1,7-dione] | ≤ 1 | ≤ 10
CN(C)C(=O)C1C2CCN(Cc3ccc(F)cc3)C(=O)C2=C(O)C(=O)N1C (stereo not drawn) [Example 9, 5-(Dimethylaminocarbonyl)-2-(4-fluorobenzyl)-8-hydroxy-6-methyl-2,3,4,4a,5,6-hexahydro-2,6-naphthyridine-1,7-dione] | ≤ 1 | ≤ 10
CN1C(=O)C(O)=C2C(=O)N(Cc3ccc(F)c(Cl)c3)CCC2C1(C)C (stereo not drawn) [Example 10] | ≤ 1 | ≤ 10
CN1C(=O)C(O)=C2C(=O)N(Cc3ccc(F)cc3)CCC2C12CCCC2 (stereo not drawn) [Example 11] | ≤ 1 | ≤ 10
CN1C(=O)C(O)=C2C(=O)N(Cc3ccc(F)c(F)c3)CCC2C1(C)C (stereo not drawn) [Example 12] | ≤ 1 | ≤ 10
CN1C(=O)C(O)=C2C(=O)N(Cc3ccc(F)cc3)CCC2C12CCC2 (stereo not drawn) [Example 13] | ≤ 1 | ≤ 10
CC(C)CNC(=O)C1C2CCN(Cc3ccc(F)cc3)C(=O)C2=C(O)C(=O)N1C (stereo not drawn) [Example 14] | ≤ 1 | ≤ 10
CN1C(=O)C(O)=C2C(=O)N(Cc3ccc(F)cc3)CCC2C1C(=O)NC(C)(C)C (stereo not drawn) [Example 15] | ≤ 1 | ≤ 10
CN1C(=O)C(O)=C2C(=O)N(Cc3ccc(F)cc3)CCC2C1C(=O)NCc1ccccn1 (stereo not drawn) [Example 16] | ≤ 1 | ≤ 10
